Measurements reported in patent US9546367B2, “siRNA compositions and methods for inhibiting gene expression in tumor initiating cells of breast cancer” (priority 2011, dated 2017).

Key:
[1] = test system: SUM159 xenografts; experiment: short-term in vivo siRNA (multistage particle) treatment, SUM159 xenograft; set-up: species or system SCID-Beige mice; conditions: for tumor volume: SUM159; for secondary MSFE: SUM159 xenograft cells, tumors collected after two weeks; for Aldefluor levels: SUM159 xenografts, reduction not statistically significant
Protocol: FIG. 9A, FIG. 9B, FIG. 9C, and FIG. 9D show short-term, in vivo treatment in siRNA SUM159 xenografts. Triple-negative breast cancer cell line SUM159 was injected into the mammary fat pad of SCID beige mice (n=9). These tumors were randomized into six groups: 1) vehicle+scrambled siRNA (15 μg, i.v.); 2) vehicle+RPL39 siRNA 15 μg (i.v.); 3) vehicle+MLF2 siRNA (15 μg (i.v.); 4) docetaxel (20 mg/kg, i.p.)+scrambled siRNA 15 μg (i.v.): 5) docetaxel (20 mg/kg, i.p.)+RPL39 siRNA 15 ltg (i.v.), and 6) docetaxel (20 mg/kg, i.p.)+MLF2 siRNA 15 μg (i.v.). […] Data were analyzed by one-way ANOVA, and plotted as mean±SEM for n=9 replicates; *p<0.05;
The effect of MLF2 and RPL39 using siRNA packaged in multistage nanoparticles in two different triple negative models were studied. SUM159 and a patient-derived human cancer xenograft (BCM2665) from a primary human breast cancer transplanted in SCID-Beige mice, the test group had 54 mice per xenograft line, and 9 mice per treatment arm. When tumor sizes reached 150 to 300 mm^3, mice were divided into six groups: (1) vehicle-treated, (2) chemotherapy on day 0 with one dose of docetaxel 20 mg/kg by intraperitoneal (i.p.) injection. (3) siRNA against MLF2 packaged in nanoparticles (single injection intravenous (i.v.) on Day 1), (4) combination treatment with docetaxel (20 mg/kg i.p. on Day 1) and siRNA against MLF2 (single injection i.v. on Day 1), (5) siRNA against RPL39 packaged in nanoparticles (single injection i.v. on Day 1), and (6) combination treatment with docetaxel (20 mg/kg i.p. on Day 1) and siRNA against inhibitor […] (single injection iv. on Day 1). The same dose (15 μg siRNA) was used in all experiments. Animals were sacrificed on Day 14. The tumors were harvested and analyzed for downstream effects on BCSC self-renewal using FACS analysis, and MSFE.
The fraction of BCSCs in the xenograft tumors from the six treatment groups were processed by mincing and digesting the tumors using collagenase type III, for 3 hrs at 37° C. in order to dissociate the tumors into single cells. Changes in CD44+/CD24/Lin− and Aldefluor® were analyzed as described previously (Li et al., 2008). Briefly, cells were stained with primary antibodies antiCD44 labeled APC (dilution 1:10. BD Biosciences), anti-CD24-labeled FITC (dilution 1:10, BD Biosciences), and additionally with H2KD-labeled PE to eliminate all mouse, lineage-positive cells. The cells were incubated in HBSS (Hanks Balanced Salt Solution, GIBCO) for 15 min on ice with 2% FBS for the antibodies and 45 min for Aldefluor® reagent. Following incubation, cells were washed once with HBSS and re-suspended in HBSS supplemented with 2% FBS. […] (PI) was added to the cells for live/dead gating prior to FACS analysis.
Mammosphere formation efficiency, the in vitro assay for stem cell self-renewal, was performed as described previously (Dontu et al., 2003; Dontu et al., 2005; Li et al., 2008). Single cells were plated in ultra-low attachment plates (Corning, Acton, Mass., USA) at the density 40,000 viable cells/mL for BCM2665 in primary culture, and at the density 10,000 viable cells/mL in secondary culture. For mammosphere culture, cells were grown in serum-free mammary epithelial basal medium (MEGM) (Lonza, Inc.) supplemented with B27 (Invitrogen), 20 ng/mL EGF (BD Biosciences), and 1% heparin (Sigma Chemical Co.) in a humidified incubator ([…]: 95% air, 37° C. for 14 days, as previously described (Li et al., 2008).

[2] = test system: MDAMB231 lung metastasis; experiment: in vivo lung metastasis of luciferase-tagged MDAMB231, IVIS imaging; set-up: species or system SCID-beige mice; conditions: siRNA in cationic liposomes twice weekly; for lung metastasis (animals with metastasis / animals), IVIS imaging: week six; for luminescence (luciferase analysis): p<0.05
Protocol: 3 million cells MDAMB231 cancer cells, stably transfected with luciferase, were injected in the mammary fat pad of SCID-beige mice and were randomized into 3 groups: (1) vehicle+scrambled siRNA, (2) vehicle+MLF2 siRNA, and (3) vehicle+RPL39 siRNA, and treated with siRNA packaged liposomes twice weekly for 6 weeks. The mice were injected with D-luciferin every week for 6 weeks to determine lung metastases using IVIS imaging (Perkin Elmer). The primary tumors were removed by week 5 to continue this study without increasing the primary tumor burden to 10% of body weight.
To assess the effects of RPL39 and MLF2 siRNA on lung metastasis, SCID-Beige mice were injected with luciferase-tagged MDAMB231 cells and treated with siRNA against RPL39 or MLF2 packaged in cationic liposomes, twice weekly simultaneously, and then sacrificed at week six.

[3] = test system: iNOS; experiment: Western blot of nitric oxide synthases after siRNA knockdown; assay type: cell-based, human; conditions: three triple-negative cell lines (SUM159, BT549, MDAMB231) treated in vitro with siRNA
Protocol: (§1) In order to confirm the pathways involved in BCSC targeting, western blot analysis was conducted with siRNA knockdown and overexpression of RPL39 and MLF2 in three breast cancer cell lines (SUM159, BT549 and MDAMB231). Briefly, 30 μg of whole cell extracts were quantified and run on a 4-20% gel for 1 hr, and transferred onto nitrocellulose membranes. The primary antibodies were incubated overnight at the following dilutions eNOS (1:500), nNOS (1:500), and iNOS (1:1000) (Millipore, Bellerica, Mass., USA) followed by one-hour secondary antibody incubation, and development using chemiluminescence.

[4] = test system: nNOS; experiment: as above; assay type: cell-based, human; conditions: three triple-negative cell lines treated in vitro with siRNA
Protocol: as §1

[5] = test system: eNOS; experiment: as above; assay type: cell-based, human; conditions: three triple-negative cell lines treated in vitro with siRNA
Protocol: as §1

[6] = siRNA alone (15 μg i.v., MSV) vs vehicle
[7] = siRNA+chemotherapy vs standard-dose docetaxel (20 mg/kg)

Q: Which tumor volume [1, 6] does the source give for “MLF2 siRNA: siRNA against myeloid leukemia factor 2; sense SEQ ID NO: 3 CCCTGATGGATCCCTTTGCTAT, antisense SEQ ID NO: 19 ATAGCAAAGGGATCCATCAGGA (packaged in nanoliposomes, chemistry not given here, further chemistry not given here)” here?
A: Significant reduction

Q: What about the tumor volume [1, 7] of the same substance?
A: Similarly, observations were obtained

Q: What about the “secondary MSFE” value [1] of the same substance?
A: Significant decrease

Q: What about the Aldefluor levels [1] of the same substance?
A: reduction

Q: And the “lung metastasis (animals with metastasis / animals), IVIS imaging” value [2]?
A: 8/12

Q: And the “luminescence (luciferase analysis)” value [2]?
A: significant reduction

Q: What about the iNOS signaling [3] of the same substance?
A: clear reduction

Q: And the nNOS [4]?
A: no changes

Q: And the eNOS [5]?
A: decrease

Q: Which tumor volume [1, 6] does the source give for “RPL39 siRNA: siRNA against ribosomal protein L39-like; sense SEQ ID NO: 15 ACGATTCCTGGCCAAGAAACAA, antisense SEQ ID NO: 31 TTGTTTCTTGGCCAGGAATCGC (listed as DNA, chemistry not fully specified)” here?
A: Significant reduction

Q: And the tumor volume [1, 7]?
A: Similarly, observations were obtained

Q: And the “secondary MSFE” value [1]?
A: Significant decrease

Q: And the Aldefluor levels [1]?
A: reduction

Q: And the “lung metastasis (animals with metastasis / animals), IVIS imaging” value [2]?
A: 5/11

Q: And the “luminescence (luciferase analysis)” value [2]?
A: significant reduction

Q: And the iNOS signaling [3]?
A: clear reduction

Q: And the nNOS [4]?
A: no changes

Q: And the eNOS [5]?
A: decrease
